For data set [1] the following is noted: cited from earlier work.
The conditions of data set [2]: literature, BPH patients; cited from earlier work.
The target in data set [3] is T1, α1A Human Adrenergic Receptor (Homo sapiens, UniProt P35348).
T1 construct: The entire coding region of α1A (1401 bp); expressed in transfected cells; membranes
T1 sequence (P35348 1-466): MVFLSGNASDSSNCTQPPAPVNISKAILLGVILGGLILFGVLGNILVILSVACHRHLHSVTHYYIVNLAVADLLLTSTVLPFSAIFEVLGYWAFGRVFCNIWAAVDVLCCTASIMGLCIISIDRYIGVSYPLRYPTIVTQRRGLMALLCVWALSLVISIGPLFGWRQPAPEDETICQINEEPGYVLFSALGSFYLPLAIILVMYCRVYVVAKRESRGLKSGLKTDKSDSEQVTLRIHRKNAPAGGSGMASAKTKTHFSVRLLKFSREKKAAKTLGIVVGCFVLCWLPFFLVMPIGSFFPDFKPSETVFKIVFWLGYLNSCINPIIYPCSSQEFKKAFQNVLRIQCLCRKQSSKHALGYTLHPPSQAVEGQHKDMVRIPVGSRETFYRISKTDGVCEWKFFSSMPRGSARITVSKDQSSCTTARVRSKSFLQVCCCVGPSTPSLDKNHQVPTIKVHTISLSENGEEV
Nature of the data set: [3H]prazosin radioligand binding, cloned human α1A receptor. The conditions noted are these: LM(tk-) membranes, [3H]prazosin 0.5 nM, 37° C., 20 min. How it is done:
(§1) Binding affinities were measured for selected compounds of the invention at six cloned human alpha-1 and alpha-2 receptor subtypes, as well as at the L-type calcium channel. The protocols for these experiments are given below.
(§2) The activity of compounds at the different human receptors was determined in vitro using cultured cell lines that selectively express the receptor of interest. These cell lines were prepared by transfecting the cloned cDNA or cloned genomic DNA or constructs containing both genomic DNA and cDNA encoding the human α-adrenergic receptors as follows:
(§3) The construct involved the ligation of partial overlapping human lymphocyte genomic and hippocampal cDNA clones: 5' sequence were contained on a 1.2 kb SmaI-XhoI genomic fragment (the vector-derived -BamHI site was used for subcloning instead of the internal insert-derived SmaI site) and 3' sequences were contained on an 1.3 kb XhoI-ClaI cDNA fragment (the ClaI site was from the vector polylinker). […]
Transfected cells from culture flasks were scraped into 5 ml of 5 mM Tris-HCl, 5 mM EDTA, pH 7.5, and lysed by sonication. […] Nonspecific binding was determined in the presence of 10 μM phentolamine. […]

Data set [4] addresses T2, α1B Human Adrenergic Receptor (Homo sapiens, UniProt P35368).
T2 construct: The entire coding region of α1B (1563 bp); expressed in transfected cells; membranes
T2 sequence (P35368 1-520): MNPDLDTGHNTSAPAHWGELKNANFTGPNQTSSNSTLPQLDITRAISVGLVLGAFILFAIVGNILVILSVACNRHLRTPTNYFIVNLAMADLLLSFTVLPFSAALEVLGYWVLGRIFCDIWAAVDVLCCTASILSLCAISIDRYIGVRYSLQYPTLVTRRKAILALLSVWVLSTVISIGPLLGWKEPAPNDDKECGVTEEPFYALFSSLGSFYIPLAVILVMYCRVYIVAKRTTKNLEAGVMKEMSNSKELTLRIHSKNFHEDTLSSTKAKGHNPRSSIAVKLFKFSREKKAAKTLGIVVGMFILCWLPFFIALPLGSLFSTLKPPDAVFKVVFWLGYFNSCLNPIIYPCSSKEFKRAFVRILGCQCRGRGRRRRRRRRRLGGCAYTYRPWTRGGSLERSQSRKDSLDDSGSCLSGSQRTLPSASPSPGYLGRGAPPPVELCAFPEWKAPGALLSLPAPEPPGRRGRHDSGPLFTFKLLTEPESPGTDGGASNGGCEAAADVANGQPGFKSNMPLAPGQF
Nature of the data set: [3H]prazosin radioligand binding, cloned human α1B receptor. The settings on record: LM(tk-) membranes, [3H]prazosin 0.5 nM, 37° C., 20 min. How it is done:
as §1, §2, §3
(§4) Transfected cells from culture flasks were scraped into 5 ml of 5 mM Tris-HCl, 5 mM EDTA, pH 7.5, and lysed by sonication. […] Nonspecific binding was determined in the presence of 10 μM phentolamine. […] Inhibition experiments, routinely consisting of 7 concentrations of the tested compounds, were analyzed using a non-linear regression curve-fitting computer program to obtain Ki values.

In data set [5] the target is T3, α1D Human Adrenergic Receptor (Homo sapiens, UniProt P25100).
T3 construct: The entire coding region of α1D (1719 bp); expressed in transfected cells; membranes
T3 sequence (P25100 1-572): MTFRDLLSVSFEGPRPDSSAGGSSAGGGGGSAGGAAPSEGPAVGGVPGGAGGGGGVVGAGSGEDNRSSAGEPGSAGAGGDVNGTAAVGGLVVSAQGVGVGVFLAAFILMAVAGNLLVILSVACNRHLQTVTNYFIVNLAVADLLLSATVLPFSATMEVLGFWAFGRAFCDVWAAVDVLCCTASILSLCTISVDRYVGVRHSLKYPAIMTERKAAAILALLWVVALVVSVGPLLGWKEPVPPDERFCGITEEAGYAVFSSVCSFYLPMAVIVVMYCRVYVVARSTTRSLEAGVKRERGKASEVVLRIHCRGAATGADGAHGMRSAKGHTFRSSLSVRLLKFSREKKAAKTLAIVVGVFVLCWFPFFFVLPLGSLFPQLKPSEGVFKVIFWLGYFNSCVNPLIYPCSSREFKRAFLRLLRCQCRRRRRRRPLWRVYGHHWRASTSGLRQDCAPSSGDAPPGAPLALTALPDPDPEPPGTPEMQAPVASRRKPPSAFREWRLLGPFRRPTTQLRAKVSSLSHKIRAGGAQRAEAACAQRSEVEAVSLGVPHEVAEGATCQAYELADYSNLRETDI
As to the kind of experiment: [3H]prazosin radioligand binding, cloned human α1D receptor. The settings on record: LM(tk-) membranes, [3H]prazosin 0.5 nM, 37° C., 20 min. The protocol: as §1, §2
The entire coding region of α1D (1719 bp), including 150 base pairs of 5' untranslated sequence t5' UT) and 300 bp of 3' untranslated sequence (3' UT), was cloned into the BamHI and ClaI sites of the polylinker-modified eukaryotic expression vector pCEXV-3, called EXJ.HR. […]
as §4

Read-outs that look alike come from different tables or passages of the source.

As for `Clc1cccc(Cl)c1N=C1NCCN1` [clonidine], the side effects entry in data set [1] (literature) was “dry mouth and sedation”.
Take `COc1cc2nc(N3CCN(C(=O)C4CCCO4)CC3)nc(N)c2cc1OC` (stereo not shown) [terazosin]: the “usefulness in BPH” value in data set [2] is listed as “useful for treating BPH”. In addition, the side effects result in data set [1] (literature) is “untoward side effects”.
In the case of `COc1cc2nc(N3CCN(C(=O)c4ccco4)CC3)nc(N)c2cc1OC` [prazosin], the “usefulness in BPH” value in data set [2] is listed as “useful for treating BPH”. For the same molecule, the side effects result in data set [1] (in vivo) is given as “untoward side effects”.
Regarding `CC(COc1ccccc1)N(CCCl)Cc1ccccc1` (stereo not shown) [phenoxybenzamine], the “usefulness in BPH” value in data set [2] was “useful in relieving the symptoms of BPH”. In addition, in data set [1] (literature), the side effects entry was “significant side effects such as dizziness and asthenia”.
Turning to `COCC1=C(C(C)=O)C(c2cc(F)c(F)c(F)c2)N(C(=O)NCCN[C@H]2CC[C@](C#N)(c3ccccc3)CC2)C(=O)N1.Cl` (stereo partly drawn) [Example 2, cis-6-(3,4,5-Trifluorophenyl)-1-{N-[2-(4-cyano-4 phenyl-cyclohexylamino)ethyl]}-carboxamido-5-acetyl-4-methoxymethyl-2-oxo-1,2,3,6 - tetrahydropyrimidine hydrochloride], in data set [3], the “hα1A pKi” value worked out at 9.51. Further, the “hα1B pKi” value in data set [4] turned out to be 7.76. In addition, the “hα1D pKi” value in data set [5] was 7.05.

Values taken from patent publication US6228861A, “Dihydropyrimidines and uses thereof” (Synaptic Pharmaceutical Corporation, priority 1998, dated 2001).
